The text below walks through data of patent publication EP4703354A1, “COMPOUND AS CCR6 ANTAGONIST, AND PHARMACEUTICAL COMPOSITION AND USE THEREOF” (Wuhan Createrna Science and Technology Co.,Ltd., priority 2023, dated 2024).

The target in one data set is T1, human CCR6 (Homo sapiens, UniProt P51684).
T1 construct: expressed in transfected cells; host or cells: HEK293
T1 sequence (P51684 1-374): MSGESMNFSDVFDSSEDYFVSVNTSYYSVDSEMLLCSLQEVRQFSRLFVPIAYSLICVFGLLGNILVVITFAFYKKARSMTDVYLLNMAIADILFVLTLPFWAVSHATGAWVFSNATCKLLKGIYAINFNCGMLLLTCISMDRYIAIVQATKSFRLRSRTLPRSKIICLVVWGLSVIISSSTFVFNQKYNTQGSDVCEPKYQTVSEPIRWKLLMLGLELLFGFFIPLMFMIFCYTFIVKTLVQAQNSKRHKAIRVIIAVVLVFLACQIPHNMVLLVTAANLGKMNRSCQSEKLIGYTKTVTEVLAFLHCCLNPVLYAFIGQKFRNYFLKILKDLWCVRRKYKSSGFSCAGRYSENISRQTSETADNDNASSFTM
Briefly: human CCR6 calcium flux activity (FLIPR, HEK293 cells stably expressing human CCR6, CCL20 stimulation). The class given is cell-based. The settings on record: HEK293 cells stably expressing human CCR6, EC80 human MIP-3 alpha/CCL20; read-out: CCR6 inhibitory activity, IC50. How it is done: The activity of the compounds was evaluated using HEK293 cells stably expressing human CCR6 via the FLIPR platform. A 384-well black cell culture plate (Greiner, 781946) was used, with a seeding density of 20,000 cells/well, and incubated overnight at 37°C in a 5% CO2 incubator. The culture medium in the cell plate wells was removed, and 20 µL of Fluo-4 Direct™ Calcium Assay Buffer (Invitrogen, F10471, Component C), 20 µL of 2× Fluo-4 Direct™ Calcium Assay Reagent (Invitrogen, F10471, Component A) working solution, and 10 µL of 6× test compound working solution were sequentially added to each well. The cell plate was incubated in a 37 °C, 5% CO2 incubator for 50 min, followed by a 10 min incubation at room temperature. Additionally, a 6×EC80 human MIP-3 alpha/CCL20 (MCE, HY-P7262) working solution was prepared. After the incubation was completed, 10 µL/well of the 6×EC80 human MIP-3 alpha/CCL20 working solution was transferred to the cell plate using a FLIPR instrument, and the fluorescence signal changes at an excitation wavelength of 494 nm and an emission wavelength of 516 nm were recorded over 90 seconds. The difference between the maximum fluorescence signal (RFUMax) and the minimum fluorescence signal (RFUMin) was used as the output signal. The compound inhibition rate and the log value of the compound concentration were calculated, and a four-parameter fitting analysis was performed using GraphPad Prism 8 software to obtain the IC50 value of the test compound.
A general note: A change in cytosolic calcium serves as a functional read-out for many receptors and channels.

A short description of data set [1]: in vivo pharmacokinetic study in SD rats. The settings on record: rat; for bioavailability: 1 mg/kg PO vs 1 mg/kg IV, read-out: Oral bioavailability F (%); for AUC(0-t) / Cmax / half-life: 1 mg/kg. The protocol: 2.2.1 Rats: SD rats, SPF grade, 6 rats per compound, male, body weight range 180-200 g.
2.2.2 Housing conditions: The animals were housed in an SPF-grade animal facility with free access to food and water, three per cage, under a 12/12-hour light/dark cycle (7:00 am/7:00 pm), at a temperature of 23 ± 3°C.
2.2.3 Drug preparation: The compound was precisely weighed, mixed with the required volume of 1% Tween 80, vortexed for 2 min, and then sonicated for 5 min until no visible particles remained. The mixture was subsequently stirred on a magnetic stirrer for 20 min, and the middle layer of the drug solution was collected for administration. For the IV group, the compound was accurately weighed, dissolved in the required volume of 50% PEG400, sonicated for 10 min, and vortexed until clear before administration.
The rats were randomly divided into 2 groups based on body weight, with 3 rats per compound per group. Group 1 was administered a single oral gavage dose (fasted), and Group 2 was administered a single tail vein bolus injection. Blood collection time points: for the po group, blood was collected at 0.167 h, 0.5 h, 1 h, 2 h, 3 h, 4 h, 6 h, and 8 h; for the iv group, blood was collected at 0.033 h, 0.167 h, 0.5 h, 1 h, 2 h, 4 h, 6 h, and 8 h.
After administration to the rats, blood was collected from the orbital venous plexus according to the sampling time points. Approximately 0.2-0.3 mL of blood was collected at each time point into anticoagulant EP tubes (containing 4 µL of EDTA-K2, 375 mg/mL, dried at 50°C). The tubes were slowly inverted up and down three times and stored in an ice box (for no more than 30 minutes). Centrifugation was performed at 4°C at 3000 × g for 10 minutes, and the supernatant was transferred to labeled EP tubes for bioanalytical testing. If testing could not be performed on the same day, the samples were stored at -80°C until analysis (care was taken to avoid multiple freeze/thaw cycles).
The data were analyzed using WinNonlin via a non-compartmental model to obtain PK parameters (Cmax, AUC0-last, AUCinf, T1/2, etc., selected based on different routes of administration). For specific data, please refer to Table 2. Table 2. PK experimental results of compounds in SD rats

SMILES strings stand for the structures. Where two headings read alike, the source gives them in different places.

Regarding `CN(C)C(=O)c1nccc(Nc2c(N[C@@H](C#CC3CCC3)[C@@]3(C)CC(F)(F)CO3)c(=O)c2=O)c1O` (single isomer, unassigned) [110B], the 50% inhibitory concentration (IC50) – broadly, the concentration that inhibits the measured activity by half – on human CCR6 was 53.6 nM.
`Cc1cccnc1C(Nc1c(Nc2ccnc(C(=O)N(C)C)c2O)c(=O)c1=O)C1(C)CCC(F)(F)C1` (single isomer, unassigned) [125B]: the bioavailability in data set [1] (in vivo) came out at 136%. Moreover, in data set [1] (in vivo, IV), the AUC(0-t) – broadly, the area under the concentration-time curve up to a stated or last time point – worked out at 1500 ng·h/mL and the Cmax (usually the peak of the concentration-time curve) turned out to be 3050 ng/mL. Moreover, in data set [1] (in vivo, PO), the AUC(0-t) was determined as 2040 ng·h/mL, the Cmax is 822 ng/mL and the half-life (commonly the time needed for the level to fall by half in the phase considered) is 82.2 min.
Regarding `Cc1cc(F)cnc1[C@H](Nc1c(Nc2ccnc(C(=O)N(C)C)c2O)c(=O)c1=O)[C@@]1(C)CC(F)(F)CO1` [093B, 4-((2-(((S)-((R)-4,4-difluoro-2-methyltetrahydrofuran-2-yl)(5-fluoro-3-methylpyridin-2-yl)methyl)amino)-3,4-dioxocyclobut-1-en-1-yl)amino)-3-hydroxy-N,N-dimethylpicolinamide], the bioavailability in data set [1] (male, plasma) amounted to 51.6%. Further, in data set [1] (male, plasma, IV), the AUC(0-t) was determined as 716 ng·h/mL and the maximum concentration (Cmax) is 1890 ng/mL. For the same molecule, in data set [1] (male, plasma, PO), the AUC(0-t) was 370 ng·h/mL, the highest concentration (Cmax) is 285 ng/mL and the half-life is 230 min.
As for `CN(C)C(=O)c1nccc(Nc2c(N[C@@H](c3ncccc3F)C3(C)CCCC3)c(=O)c2=O)c1O` [compound 001, (R)-4-((2-(((3-fluoropyridin-2-yl)(1-methylcyclopentyl)methyl)amino)-3,4-dioxocyclobut-1-en-1-yl)amino)-3-hydroxy-N,N-dimethylpicolinamide], at human CCR6, the IC50 was 2.4 nM.
Same read-out and setting: in the case of `CN(C)C(=O)c1nccc(Nc2c(N[C@@H](c3cnccn3)C3(C)CCCC3)c(=O)c2=O)c1O` [compound 006, (R)-3-hydroxy-N,N-dimethyl-4-((2-(((1-methylcyclopentyl)(pyrazin-2-yl)methyl)amino)-3,4-dioxocyclobut-1-en-1-yl)amino)picolinamide] it was 74 nM; in that of `CN(C)C(=O)c1nccc(Nc2c(N[C@@H](c3cccc(C(F)(F)F)n3)C3(C)CCCC3)c(=O)c2=O)c1O` [compound 008, (R)-3-hydroxy-N,N-dimethyl-4-((2-(((1-methylcyclopentyl)(6-(trifluoromethyl)pyridin-2-yl)methyl)amino)-3,4-dioxocyclobut-1-en-1-yl)amino)picolinamide], 151 nM.
Still for that read-out and setting: in the case of `CN(C)C(=O)c1nccc(Nc2c(N[C@@H](c3ncc(F)cc3Cl)C3(C)CCCC3)c(=O)c2=O)c1O` [compound 011, (R)-4-((2-(((3-chloro-5-fluoropyridin-2-yl)(1-methylcyclopentyl)methyl)amino)-3,4-dioxocyclobut-1-en-1-yl)amino)-3-hydroxy-N,N-dimethylpicolinamide] it was 22.5 nM.
Same read-out and setting: as for `CN(C)C(=O)c1nccc(Nc2c(N[C@@H](c3cc(Cl)ccn3)C3(C)CCCC3)c(=O)c2=O)c1O` [compound 012, (R)-4-((2-(((4-chloropyridin-2-yl)(1-methylcyclopentyl)methyl)amino)-3,4-dioxocyclobut-1-en-1-yl)amino)-3-hydroxy-N,N-dimethylpicolinamide], the figure is 9 nM.
`CN(C)C(=O)c1nccc(Nc2c(N[C@@H](c3ncccc3C(F)F)C3(C)CCCC3)c(=O)c2=O)c1O` [compound 015, (R)-4-((2-(((3-(difluoromethyl)pyridin-2-yl)(1-methylcyclopentyl)methyl)amino)-3,4-dioxocyclobut-1-en-1-yl)amino)-3-hydroxy-N,N-dimethylpicolinamide]: the IC50 at human CCR6 amounted to 161 nM.
Same read-out and setting: in the case of `CN(C)C(=O)c1nccc(Nc2c(N[C@@H](c3nccc(F)c3F)C3(C)CCCC3)c(=O)c2=O)c1O` [compound 021, (R)-4-((2-(((3,4-difluoropyridin-2-yl)(1-methylcyclopentyl)methyl)amino)-3,4-dioxocyclobut-1-en-1-yl)amino)-3-hydroxy-N,N-dimethylpicolinamide] it was 6.4 nM; in that of `CN(C)C(=O)c1nccc(Nc2c(N[C@@H](c3ccc(F)c(F)n3)C3(C)CCCC3)c(=O)c2=O)c1O` [compound 024, (R)-4-((2-(((5,6-difluoropyridin-2-yl)(1-methylcyclopentyl)methyl)amino)-3,4-dioxocyclobut-1-en-1-yl)amino)-3-hydroxy-N,N-dimethylpicolinamide], 47.4 nM; in that of `CC(C)N(C)C(=O)c1nccc(Nc2c(N[C@@H](c3ncccc3F)C3(C)CCCC3)c(=O)c2=O)c1O` [compound 026, (R)-4-((2-(((3-fluoropyridin-2-yl)(1-methylcyclopentyl)methyl)amino)-3,4-dioxocyclobut-1-en-1-yl)amino)-3-hydroxy-N-isopropyl-N-methylpicolinamide], 0.7 nM.
Still for that read-out and setting: in the case of `CN(C)C(=O)c1nccc(Nc2c(NC(c3nn(C)c4c3COC4)C3(C)CCCC3)c(=O)c2=O)c1O` (stereo not shown) [compound 027, 3-hydroxy-N,N-dimethyl-4-((2-(((1-methyl-4,6-dihydro-1H-furo[3,4-c]pyrazol-3-yl)(1-methylcyclopentyl)methyl)amino)-3,4-dioxocyclobut-1-en-1-yl)amino)picolinamide] it was 1370 nM; in that of `Cc1c(C(Nc2c(Nc3ccnc(C(=O)N(C)C)c3O)c(=O)c2=O)C2(C)CCCC2)nn2c1CCC2` (stereo not shown) [compound 029, 3-hydroxy-N,N-dimethyl-4-((2-(((3-methyl-5,6-dihydro-4H-pyrrolo[1,2-b]pyrazol-2-yl)(1-methylcyclopentyl)methyl)amino)-3,4-dioxocyclobut-1-en-1-yl)amino)picolinamide], 161 nM; in that of `CN(C)C(=O)c1nccc(Nc2c(NC(C(=O)C3CC3)C3(C)CCCC3)c(=O)c2=O)c1O` (stereo not shown) [compound 034, 4-((2-((2-cyclopropyl-1-(1-methylcyclopentyl)-2-oxoethyl)amino)-3,4-dioxocyclobut-1-en-1-yl)amino)-3-hydroxy-N,N-dimethylpicolinamide], 887 nM.
Still for that read-out and setting: as for `CN(C)C(=O)c1nccc(Nc2c(NC(C(=O)C3CCC3)C3(C)CCCC3)c(=O)c2=O)c1O` (stereo not shown) [compound 035, 4-((2-((2-cyclobutyl-1-(1-methylcyclopentyl)-2-oxoethyl)amino)-3,4-dioxocyclobut-1-en-1-yl)amino)-3-hydroxy-N,N-dimethylpicolinamide], the figure is 820 nM.
`CN(C)C(=O)c1nccc(Nc2c(N[C@@H](c3ccccc3)C3(C)CCCC3)c(=O)c2=O)c1O` [compound 037, (R)-3-hydroxy-N,N-dimethyl-4-((2-(((1-methylcyclopentyl)(phenyl)methyl)amino)-3,4-dioxocyclobut-1-en-1-yl)amino)picolinamide]: the concentration for half-maximal inhibition (IC50) on human CCR6 stood at 95.8 nM.
Still for that read-out and setting: in the case of `CC(C)[C@H](Nc1c(Nc2ccnc(C(=O)N(C)C)c2O)c(=O)c1=O)C1(C)CCCC1` [compound 038, (S)-3-hydroxy-N,N-dimethyl-4-((2-((2-methyl-1-(1-methylcyclopentyl)propyl)amino)-3,4-dioxocyclobut-1-en-1-yl)amino)picolinamide] it was 113 nM.
